Measurements as given in US12383579B2, “Materials and methods of using an inhibitor of plasminogen activation to treat anastomotic leak” (THE UNIVERSITY OF CHICAGO, priority 2018, dated 2025).
“And” between values parts separate entries of the source, which are not always exact repeats. Equal entries are not always repeated.

Tests used:
[1] = tested on: E. faecalis V583-induced AL
Procedure: Mouse model of AL. The experiments disclosed herein used the validated model of pathogen-mediated AL in mice (8′). Ten- to 12-week-old C57BL/6 mice (Charles River) were provided standard chow and tap water ad libidum at all times. When indicated, mice received oral clindamycin (100 mg/kg gavage) and subcutaneous cefoxitin (40 mg/kg) the day prior to, and the day of, surgery. Mice underwent general anesthesia with intraperitoneal ketamine and xylocaine and laparotomy followed by transection of the colon at the colo-rectal junction followed by a primary anastomosis created with interrupted 8-0 prolene suture prior to abdominal closure with 4-0 vicryl suture in two layers. Rectal enemas containing pathogen, either E. faecalis or P. aeruginosa at an OD600 of 0.1 in 10% glycerol, were administered in 100 L enemas. E. faecalis was introduced on POD 1, 2, and 3, while P. aeruginosa was introduced only on POD 1. Mice received 100 L rectal enemas containing 50 mM TXA or vehicle control on postoperative days 1, 2, and 3. Rectal delivery with a gavage needle ensured local administration of pathogen and study drugs to the surgical site. […] Both the surgeon and the investigator performing analysis of healing were blind to the treatment group. […]

[2] = target: PLG activation by E. faecalis V583 (Homo sapiens, UniProt P00747); type: biochemical
Procedure: Plasminogen/uPA activity. Plasmin activity assays were performed as previously described with minor modifications, and fluorescence data was analyzed per the manufacturer's instructions (50′). Incubation times were optimized for bacteria at low optical density to limit internal filter effects in fluorescence-based assays. Bacteria (when included) were grown overnight in TY media. OD600 was normalized by dilution to 0.1, equivalent to 8×10^7 CFU/mL. Samples at OD 0.1 were diluted 1:10 in the final reaction through the addition of media and dissolved substrates. Bacteria were incubated with 250 nM human glu-plasminogen (Haematologic technologies) for two hours at 37° C. TXA (Fisher) was added concomitantly with PLG. […] A final concentration of 6 M fluorogenic substrate specific for plasmin (H-D-Val-Leu-Lys-AFC, AnaSpec) was added immediately prior to a kinetic fluorescent read with excitation wavelength 380 nm and emission wavelength 500 nm. Reads were conducted every 15 to 30 seconds over the course of 30 minutes. […] When assays were performed in human plasma, fluorescence was read for 120 minutes total.
Plasmin or uPA activity is expressed as initial reaction velocity calculated from change in fluorescence over time during the initial phase of the reaction, when pseudo-first order kinetics determine the rate due to high substrate concentrations where a linear rise in fluorescence is observed. […]

[3] = tested on: P. aeruginosa-induced anastomotic leak; test: Mouse model of P. aeruginosa-induced anastomotic leak; type: in vivo, mice
Procedure: Mouse model of AL. The experiments disclosed herein used the validated model of pathogen-mediated AL in mice (8′). Ten- to 12-week-old C57BL/6 mice (Charles River) were provided standard chow and tap water ad libidum at all times. When indicated, mice received oral clindamycin (100 mg/kg gavage) and subcutaneous cefoxitin (40 mg/kg) the day prior to, and the day of, surgery. Mice underwent general anesthesia with intraperitoneal ketamine and xylocaine and laparotomy followed by transection of the colon at the colo-rectal junction followed by a primary anastomosis created with interrupted 8-0 prolene suture prior to abdominal closure with 4-0 vicryl suture in two layers. Rectal enemas containing pathogen, either E. faecalis or P. aeruginosa at an OD600 of 0.1 in 10% glycerol, were administered in 100 L enemas. E. faecalis was introduced on POD 1, 2, and 3, while P. aeruginosa was introduced only on POD 1. […] Rectal delivery with a gavage needle ensured local administration of pathogen and study drugs to the surgical site. Rules for stopping the experiment were enacted if mice appeared moribund or in any distress whereby they were sacrificed immediately. There were three deaths prior to planned sacrifice, all determined secondary to feculent peritonitis due to AL. Both the surgeon and the investigator performing analysis of healing were blind to the treatment group. […]

RAW macrophages = test: Collagen degradation by RAW macrophages given RAW/E44s conditioned media; type: cell-based, murine; conditions: TXA 10 mM, PLG 250 nm, MMP9 1 nM, 4 hours
Procedure: FIG. 16. […] (A), E. faecalis E44 was grown in TY media overnight, and cell-free conditioned media (E44s) was applied to RAW macrophages for 4 hours. PLG, 250 nm, was included in the reaction. […] PLG activation was measured by fluorogenic substrate cleavage. “RAW” column is naïve RAW. *p<0.05, n=6/group. (B), Conditioned media after co-interaction of macrophages with E. faecalis E44 (named RAW/E44s) was applied to naïve RAW macrophages for 4 hours. PLG, 250 nm, and MMP9, 1 nM, were in all reactions. […] “RAW+RAWs” column is naïve macrophages incubated with conditioned media of RAW macrophages (no E. faecalis E44). *p<0.05, n=6/group.
It was then tested whether macrophage collagen degradation activity is enhanced by stimulation with E. faecalis. Conditions from the above experiment (RAW/E44 s) with naïve RAW macrophages were used. PLG and MMP9 were included in the reaction. Degradation of collagen was enhanced by secreted factors produced during the co-interaction of RAW and E44s. […] Finally, to investigate the mechanism of PLG activation by E. faecalis, a parent collagenolytic strain isolated from a patient with AL (V583) was used, along with its mutant derivative (DDGelE/Spr) with secretory collagenolytic factors serine protease (Spr) and gelatinase (GelE) genetically removed. […]

[4] = tested on: E. faecalis E44-induced AL; test: Mouse model of E44-induced anastomotic leak; type: in vivo, C57BL/6 mice
Procedure: The role of activated plasminogen (PLG) in anastomotic leak. […] Co-incubation of E44 with murine macrophages ([…]) was performed for studies involving conditioned media. Twenty-week-old male C57BL/6 mice underwent the validated model of E44-induced AL that includes preoperative antibiotics to defaunate the colon, surgical transection and anastomosis of the colon and introduction of E44 in 10% glycerol to the surgical site via rectal enema on postoperative day 1. […] Anastomotic healing was assessed blindly using a validated anastomotic healing score (AHS): 0=uncomplicated healing, 1=flimsy adhesions, 2=dense adhesions, 3=abscess, and 4=gross anastomotic disruption. AL was defined as AHS 3 or above.

[5] = tested on: type IV collagen degradation by V583; test: Type IV collagen degradation by E. faecalis V583 with PLG and uPA; type: biochemical, Enterococcus faecalis
Procedure: Collagen degradation. Assays were performed per the manufacturer's instructions as previously described with slight modifications (51′). Bacteria were grown overnight in TY. Optical density was normalized to 0.1 through dilution. […] Total reaction volume was 200 L. The incubation proceeded at 37° C. for 5 hours to allow for bacterial attachment to collagen and PLG binding. uPA was added and the incubation proceeded for an additional hour. Change in fluorescence over time at 480/520 nm was determined kinetically over the initial 30 minutes of the reaction.

PLG activation by E. faecalis V583, sequence (P00747 20-810): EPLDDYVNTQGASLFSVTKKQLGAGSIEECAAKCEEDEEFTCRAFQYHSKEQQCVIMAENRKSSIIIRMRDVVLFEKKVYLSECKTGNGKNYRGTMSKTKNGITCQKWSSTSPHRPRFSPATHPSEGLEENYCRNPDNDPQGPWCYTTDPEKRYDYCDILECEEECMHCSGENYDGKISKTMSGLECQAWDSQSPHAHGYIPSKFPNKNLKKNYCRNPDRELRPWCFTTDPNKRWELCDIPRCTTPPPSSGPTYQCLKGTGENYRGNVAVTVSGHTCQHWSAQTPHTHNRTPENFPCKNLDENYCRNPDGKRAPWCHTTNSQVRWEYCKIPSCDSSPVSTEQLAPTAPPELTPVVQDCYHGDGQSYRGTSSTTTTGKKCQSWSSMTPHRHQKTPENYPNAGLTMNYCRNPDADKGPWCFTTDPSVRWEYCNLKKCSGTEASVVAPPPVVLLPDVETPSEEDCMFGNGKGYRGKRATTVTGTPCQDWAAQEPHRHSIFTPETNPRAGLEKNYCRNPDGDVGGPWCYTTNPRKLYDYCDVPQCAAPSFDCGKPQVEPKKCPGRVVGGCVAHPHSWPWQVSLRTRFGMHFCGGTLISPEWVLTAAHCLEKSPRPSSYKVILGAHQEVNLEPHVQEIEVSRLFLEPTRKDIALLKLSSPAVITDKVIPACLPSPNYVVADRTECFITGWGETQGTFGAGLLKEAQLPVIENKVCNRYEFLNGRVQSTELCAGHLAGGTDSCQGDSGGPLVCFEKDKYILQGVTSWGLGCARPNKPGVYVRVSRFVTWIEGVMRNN

NC[C@H]1CC[C@H](C(=O)O)CC1 [TXA, tranexamic acid]
mean anastomotic healing score (AHS) ([1]; 100 μL enema of 50 mM TXA POD 1, 2, 3, POD 8, vehicle 2.7±0.2): 1.5±0.2 | trichrome staining of POD8 anastomotic tissue ([1]; TXA enema versus vehicle with AL): increased quantity and organization of fibroblastic products in the submucosa | reduction in PLG activation by E. faecalis ([2]; in vitro, concentrations lower than circulating concentration after PO dosing (FIG. 23)): 20% | PLG activation by V583 in the presence of uPA ([2]; plasmin activity assay, PLG 250 nM, uPA): inhibited PLG activation by V583 in a concentration-dependent manner | clinical / gross leak ([3]; 5 mice per group, enema POD 1, 2, 3): None of the mice | anastomotic healing score (AHS) ([3]; 100 μL enema POD 1, 2, 3 (50 mM TXA in water or PBS), POD 8, water 3.8±0.4): 1.6±0.5 and 1.6+/−0.6 | collagen degradation by macrophages given RAW/E44s conditioned media (RAW macrophages): attenuated | overall healing (AHS) compared to vehicle control ([4]; TXA 0.75 mg/kg rectal enema POD 1, 2 and 3, POD 8): significantly superior | mean anastomotic healing score (AHS) ([4]; TXA 0.75 mg/kg rectal enema, scored postoperative day 8, vehicle 2.8): 1.4 | type IV collagen degradation by V583 with PLG and uPA ([5]; V583, PLG, uPA and TXA): concentration-dependent inhibition | reduction of bacterial collagen degradation ([5]; same concentration levels as for PLG activation (FIG. 23)): over 80%
